For test [1], the target named is T1, IDO1 (Homo sapiens, UniProt P14902). The experiment in a line: IDO1 enzymatic assay. The class given is biochemical. Details: His tag (N); made in house; host or cells: E. coli. The settings on record: read-out: Enzyme IC50 IDO1. An outline of the steps:
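Assays were run in 50 mM potassium phosphate pH 7.5 with 0.1% BSA for 1.5 hours at 24 °C. Each contained 50 nM E. coli-purified, N-terminally His-tagged IDO1, compound, 1.3 mM D-tryptophan, 5 mM L-ascorbic acid, methylene blue and 0.4 mg/mL catalase. IC50 was calculated from remaining enzyme activity across a rising compound series, with activity taken as the slope of N'-formylkynurenine formation read continuously at 321 nm for 1 hour.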

The next test addresses T2, TDO (Homo sapiens, UniProt P48775).
T2 construct: His tag (C); made in house; host or cells: E. coli
The test can be described thus: TDO enzymatic assay. The settings on record: read-out: Enzyme IC50 TDO. The class given is biochemical. An outline of the steps: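 Recombinant C-terminally His-tagged TDO purified from E. coli (100 nM) was tested with 0.5 mM L-tryptophan (Km concentration). Otherwise the IDO1 enzymatic set-up was used: ascorbic acid, methylene blue, catalase, and potassium phosphate pH 7.5 with BSA, incubated 1.5 hours. N'-formylkynurenine absorbance was read continuously at 321 nm, and activity was taken as the slope. IC50 was calculated from remaining enzyme activity across increasing compound concentrations.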

In test [2] the target is T1, IDO1. The test can be described thus: Hela cell-based IDO1 assay. The following applies: Hela cells. Summed up: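 HeLa cells were seeded at 8000 per well in 96-well plates in phenol red-free DMEM with 10% FBS. After 4 hours, DMSO-diluted compound dilutions were added with IFN-γ (final 100 ng/mL) and 0.4 mM L-Trp, and cells were kept 48 hours at 37 °C, 5% CO2. Supernatant was deproteinised with trichloroacetic acid, and kynurenine was measured at 480 nm after adding 2% 4-(dimethylamino)benzaldehyde. Potency came from four-parameter logistic fits in XLfit.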

The target in test [3] is T3, cellular TDO2 in HEK293-TDO2 cells (Homo sapiens, UniProt P48775).
T3 construct: expressed in transfected cells; host or cells: HEK293 (ATCC), stably transfected
The experiment in a line: 293-TDO2 cell-based assay (Kyn colorimetric). The following applies: 48 hours of incubation. Summed up: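 HEK293 cells stably expressing TDO2 (10000/well, phenol red-free DMEM, 10% FBS) were dosed 4 h after plating and incubated 48 h at 37° C. Supernatant Kyn was measured after TCA precipitation by 4-(dimethylamino)benzaldehyde colour at 480 nm. IC50 came from four-parameter logistic fits.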

A value given as a limit tells only on which side of the number the result lay.

Our source for the IC50 and EC50 values is patent publication US10882856B2 (BeiGene, Ltd., priority 2017, dated 2021).

The IC50 is the point on the concentration scale where inhibition reaches its midpoint. A word on the EC50: it is the concentration giving half of the maximal effect.

T1 sequence (P14902 whole entry): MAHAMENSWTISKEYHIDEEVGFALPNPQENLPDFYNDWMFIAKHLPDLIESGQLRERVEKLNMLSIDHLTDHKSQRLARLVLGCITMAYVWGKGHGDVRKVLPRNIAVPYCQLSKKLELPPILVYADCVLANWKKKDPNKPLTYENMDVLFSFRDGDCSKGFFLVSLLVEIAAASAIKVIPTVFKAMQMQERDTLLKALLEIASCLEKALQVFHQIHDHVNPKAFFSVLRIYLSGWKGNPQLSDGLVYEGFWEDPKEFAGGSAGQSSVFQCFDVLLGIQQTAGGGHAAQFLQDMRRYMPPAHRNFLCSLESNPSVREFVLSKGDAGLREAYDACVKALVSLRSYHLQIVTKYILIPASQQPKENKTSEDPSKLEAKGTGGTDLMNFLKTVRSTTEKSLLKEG
T2 sequence (P48775 whole entry): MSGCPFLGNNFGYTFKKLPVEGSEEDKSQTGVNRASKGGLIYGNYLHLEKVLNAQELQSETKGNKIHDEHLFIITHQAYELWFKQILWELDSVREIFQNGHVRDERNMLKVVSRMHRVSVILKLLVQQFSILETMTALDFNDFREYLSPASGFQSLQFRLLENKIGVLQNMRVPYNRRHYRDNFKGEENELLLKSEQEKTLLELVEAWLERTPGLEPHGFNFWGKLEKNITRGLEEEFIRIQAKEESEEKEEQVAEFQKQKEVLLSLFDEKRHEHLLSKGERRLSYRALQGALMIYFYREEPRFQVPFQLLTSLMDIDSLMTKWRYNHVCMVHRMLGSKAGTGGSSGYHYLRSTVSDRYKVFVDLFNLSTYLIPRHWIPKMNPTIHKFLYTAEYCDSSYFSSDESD
T3 sequence (P48775 whole entry): as above

For the compound `O[C@H](c1c(C2CC2)ccc2cncn12)[C@H]1CC[C@H](c2ccc3sccc3c2)CC1` (single isomer, unassigned) [Example D133a], the IC50 was 21 nM on IDO1 [1] and 6700 nM on TDO. For the same compound, the EC50 at IDO1 [2] is 220 nM; in test [3], above 10000 nM.
As to `OC(c1c(C2CC2)ccc2cncn12)[C@H]1CC[C@H](c2ccc3ccsc3c2)CC1` (single isomer, unassigned) [Example D134a], the IC50 at IDO1 [1] was found to be 15 nM; on TDO it was 6100 nM. For the same compound, the EC50 on IDO1 [2] was 135 nM; in test [3] it was above 10000 nM.
The corresponding values for `O[C@H](c1c(C2CC2)ccc2cncn12)[C@H]1CC[C@H](c2cccc3ccccc32)CC1` (single isomer, unassigned) [Example D135a] are 25 nM, 11000 nM, 32 nM and above 10000 nM.
For `O[C@H](c1c(C2CC2)ccc2cncn12)[C@H]1CC[C@H](c2ccc3ccccc3c2)CC1` (single isomer, unassigned) [Example D136a], the concentration for half-maximal inhibition (IC50) at IDO1 [1] was 21 nM; on TDO, 16000 nM. Moreover, the EC50 on IDO1 [2] was 254 nM; in test [3] it was above 10000 nM.
For `O[C@H](c1c(C2CC2)ccc2cncn12)[C@H]1CC[C@H](c2ccc(F)c3ccccc32)CC1` (single isomer, unassigned) [Example D137a], the half-maximal inhibitory concentration (IC50) on IDO1 [1] is 19 nM; at TDO, 7400 nM. The EC50 at IDO1 [2] was 36 nM; in test [3] it was above 10000 nM.
In the case of `O[C@H](c1c(C2CC2)ccc2cncn12)[C@H]1CC[C@H](c2ccnc3ccccc32)CC1` (single isomer, unassigned) [Example D140a], the figures for the IC50 on IDO1 [1] and on TDO were 20 nM and 11000 nM, respectively. The EC50 at IDO1 [2] was 38 nM; in test [3], above 10000 nM.
With `O[C@H](c1c(C2CC2)ccc2cncn12)[C@H]1CC[C@H](c2cccc3ncccc32)CC1` (single isomer, unassigned) [Example D141a], the IC50 worked out at 15 nM at IDO1 [1] and 6100 nM at TDO. Further, the EC50 was 12 nM on IDO1 [2] and above 10000 nM in test [3].
On to `O[C@H](c1c(C2CC2)ccc2cncn12)[C@H]1CC[C@H](c2ccc(F)c(F)c2F)CC1` (single isomer, unassigned) [Example D145a], for which the IC50 stood at 19 nM at IDO1 [1] and 13000 nM at TDO. The 50% effective concentration (EC50) on IDO1 [2] was 277 nM; in test [3], above 10000 nM.
Take `O[C@H](c1c(C2CC2)ccc2cncn12)[C@H]1CC[C@H](c2cccc(F)c2)CC1` (single isomer, unassigned) [Example D156a]: the IC50 on IDO1 [1] was 20 nM; on TDO, 12000 nM. In addition, the figures for the EC50 (at IDO1 [2]; in test [3]) were 31 nM and above 10000 nM, respectively.
With `O[C@H](c1cc(Cl)cc2cncn12)[C@H]1CC[C@H](c2ccc(Cl)cc2)CC1` (single isomer, unassigned) [Example E101a], the values for the IC50 at IDO1 [1] and at TDO were 27 nM and 1700 nM, respectively. The results for the EC50 (at IDO1 [2]; in test [3]) were 2530 nM and above 10000 nM, respectively.
The corresponding values for `O[C@H](c1cc(Cl)cc2cncn12)[C@H]1CC[C@H](c2cccc3ccccc32)CC1` (single isomer, unassigned) [Example E103a] are 17 nM, 1400 nM, 777 nM and above 10000 nM.
`O[C@@H](c1cc(Cl)cc2cncn12)[C@H]1CC[C@H](c2ccc3ccccc3c2)CC1` (single isomer, unassigned) [Example E104b]: the concentration for half-maximal inhibition (IC50) at IDO1 [1] amounted to 3500 nM; at TDO, 1400 nM. Also, the EC50 (at IDO1 [2]; in test [3]) was above 10000 nM throughout.
For the compound `COc1ccc([C@H]2CC[C@H]([C@H](O)c3c(C4CC4)ccn4cncc34)CC2)cc1` [Example C101a, (S)-(7-cyclopropylimidazo[1,5-a]pyridin-8-yl)(4-(4-methoxyphenyl)cyclohexyl)methanol], the IC50 was 17 nM on IDO1 [1] and 4200 nM on TDO. Further, the EC50 at IDO1 [2] was 110 nM; in test [3] it was above 10000 nM.
The corresponding values for `CC(=O)c1ccc([C@H]2CC[C@H]([C@H](O)c3c(C4CC4)ccn4cncc34)CC2)cc1` [Example C125, 1-(4-((1 S,4r)-4-((S)-(7-cyclopropylimidazo[1,5-a]pyridin-8-yl)(hydroxy)methyl)cyclohexyl)phenyl)ethan-1-one] are 41 nM, 6100 nM, 915 nM and above 10000 nM.
As for `Cn1cc(-c2ccc(N3CCC(C(O)c4c(C5CC5)ccn5cncc45)CC3)cc2)cn1` (centres unmarked) [Example C152, (7-cyclopropylimidazo[1,5-a]pyridin-8-yl)(1-(4-(1-methyl-1H-pyrazol-4-yl)phenyl)piperidin-4-yl)methanol], the half-maximal inhibitory concentration (IC50) at IDO1 [1] came out at 29 nM; at TDO, 3300 nM. Further, the EC50 on IDO1 [2] was 520 nM; in test [3], above 10000 nM.
On to `OCCn1cc(-c2ccc(N3CCC(C(O)c4c(C5CC5)ccn5cncc45)CC3)cc2)cn1` (centres unmarked) [Example C153, 2-(4-(4-(4-((7-cyclopropylimidazo[1,5-a]pyridin-8-yl)(hydroxy)methyl)piperidin-1-yl)phenyl)-1H-pyrazol-1-yl)ethan-1-ol], for which the IC50 on IDO1 [1] turned out to be 47 nM; at TDO it was 6700 nM. The EC50 on IDO1 [2] is 1050 nM; in test [3], above 10000 nM.
`O[C@@H](c1c(C2CC2)ccc2cncn12)[C@H]1CC[C@@H](c2ccc(OC3CCOCC3)cc2)CC1` [Example D114a, (R)-(6-cyclopropylimidazo[1,5-a]pyridin-5-yl)((1 s,4S)-4-(4-((tetrahydro-2H-pyran-4-yl)oxy)phenyl)cyclohexyl)methanol]: the IC50 turned out to be 17 nM on IDO1 [1] and 1700 nM on TDO. Moreover, the results for the 50% effective concentration (EC50) (at IDO1 [2]; in test [3]) were 572 nM and above 10000 nM, respectively.
